Measured values from PubChem BioAssay AID463206 (Broad Institute, 2010).
Active and inactive are the calls of the source.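 How the source made its calls: active means caspase luminescence falls with dose and the half-maximal concentration AC50 from the fitted curve is at or below a set limit; inconclusive means flat fit at 30 to 70% signal loss, or invalid fit; inactive means AC50 above the limit, or signal rises instead.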

system: INS-1E cytokine-induced caspase-3/7, Caspase-Glo luminescence, 48 h; assay: suppression of cytokine-driven beta-cell apoptosis – INS-1E rat cells, luminescence, orthogonal assay for beta-cell apoptosis protection project, dose response (AID 463206)

Row | SMILES | AC50
1 | COc1nc(Nc2nc3ccccc3c(=O)[nH]2)nc2ccc(C)cc12 | > 26 µM (inactive)
2 | Cc1cc(C)n(-c2nc(NCCN(C)C)c3c4c(sc3n2)CCCC4)n1 | 13.1 µM
3 | S=C(NCc1ccc(Cl)cc1)NC12CC3CC(CC(C3)C1)C2 | > 26 µM (inactive)
4 | c1ccc(-[n+]2nc(Nc3cccc4ccccc34)sc2-c2c3ccccc3cc3ccccc23)cc1 | > 26 µM (inactive)
5 | O=C(Nc1cc(Sc2ccccn2)cc([N+](=O)[O-])c1)c1cccc(F)c1 | > 26 µM (inactive)
6 | O=C(NC(c1cccnc1)C(F)(F)F)c1cc(COc2ccc3c(c2)CCCC3)on1 (configuration not stated) | > 26 µM (inactive)
7 | O=C(N/N=C/c1c(O)ccc2ccccc12)c1ccc(Br)o1 | > 26 µM (inactive)
8 | COC(=O)C1CCN(C(=O)c2cc(-c3ccc(Cl)s3)nc3ccccc23)CC1 | > 26 µM (inactive)
9 | COc1cc([N+](=O)[O-])ccc1NC(=O)CC1SC(=Nc2ccc(F)cc2)N(CCC2=CCCCC2)C1=O (configuration not stated) | > 26 µM (inactive)
10 | C/C(=N/NC(=O)CN(c1ccccc1)S(=O)(=O)c1ccccc1)c1ccccc1O | > 26 µM (inactive)
11 | Cc1cccc2c(C(=O)N3CCN(c4ccccn4)CC3)cc(-c3cccc(Br)c3)nc12 | > 26 µM (inactive)
12 | COc1ccc(C)cc1Nc1n[n+](-c2ccccc2)c(-c2ccc(N(C)C)cc2)s1 | > 26 µM (inactive)
13 | COc1cccc(/C=N/Nc2snc(SC)c2C#N)c1O | > 26 µM (inactive)
14 | O=c1[nH]c(=O)n(Cc2ccco2)c2c1C(C(F)(F)F)(C(F)(F)F)N=C(c1ccc(F)cc1)N2 | > 26 µM (inactive)
15 | COc1ccc(Cn2c(SCc3cc(C)ccc3C)nc3cc(OC)c(OC)cc3c2=N)cc1 | > 26 µM (inactive)
16 | C#CCN(C(=O)c1cc(COc2cccc(C(F)(F)F)c2)on1)C1CCCCC1 | > 26 µM (inactive)
17 | COc1ccc(OC)c(NC(=O)CSc2nnc(-c3cccnc3)s2)c1 | > 26 µM (inactive)
18 | NC(N)=NC(N)=Nc1ccc(SC(F)(F)F)cc1 | > 26 µM (inactive)
19 | CCc1nnc(NC(=O)c2cccc(C(=O)Nc3nnc(CC)s3)n2)s1 | > 26 µM (inactive)
20 | CCOC(=O)c1cnc(-n2nc(C)cc2C)nc1Nc1ccc(O)cc1 | > 26 µM (inactive)
21 | O=C(COc1ccccc1-c1ccccc1)N/N=C/c1ccc2ccccc2c1 | > 12 µM (inactive)
22 | C/C(=N\Nc1nc(C)cc(-c2ccccc2)n1)c1ccccc1 | > 26 µM (inactive)
23 | O=S(=O)(c1ccc2c(c1)OCCO2)N1CCN(c2ncnc3sccc23)CC1 | > 26 µM (inactive)

Row | SMILES | AC50
24 | COc1ccc(N/N=C(/N=Nc2nc(C)cc(=O)[nH]2)c2ccccc2)cc1 | > 26 µM (inactive)
25 | CC(=O)NC(c1cc(Cl)c2cccnc2c1O)C(C)C (configuration not stated) | > 26 µM (inactive)
26 | c1ccc(N2CCN(CC3CCCCC3)CC2)cc1 | > 26 µM (inactive)
27 | COc1cc(Br)cc(/C=N/NC(=O)Cc2ccc(C(F)(F)F)cc2[N+](=O)[O-])c1O | > 26 µM (inactive)
28 | Cc1ccccc1OCC(O)CNC1CCC(NCC(O)COc2ccccc2C)CC1 (configuration not stated) | > 26 µM (inactive)
29 | C/C(=N\NC(=O)C(=O)Nc1cccc(Cl)c1)c1ccncc1 | > 26 µM (inactive)
30 | CC1CC(=O)N(c2ccc(Br)cc2)C(=O)C1 | > 26 µM (inactive)
31 | Cc1nn(Cc2c(Cl)cccc2Cl)c(C)c1NC(=O)c1cn(-c2ccccc2)nc1-c1ccccc1 | > 26 µM (inactive)
32 | Cc1nc2ccccc2n1Cc1ccc(Br)cc1 | > 26 µM (inactive)
33 | O=C(NC1=C(Nc2ccc(Cl)cc2)C(=O)c2ccccc2C1=O)c1ccccc1 | > 26 µM (inactive)
34 | Cc1ccccc1NC(=S)N/N=C/c1ccc(O)cc1O | > 26 µM (inactive)
35 | CC(C)CNC(=O)COC(=O)c1c2c(nc3ccccc13)/C(=C/c1cccs1)CC2 | > 26 µM (inactive)
36 | CCOC(=O)N1CCN(Cc2cc(Cl)c3cccnc3c2O)CC1 | > 26 µM (inactive)
37 | CCOc1cc(/C=C2\COc3ccccc3C2=O)cc(Br)c1OCC(=O)N(C)C | > 26 µM (inactive)
38 | Cc1ccccc1Nc1c(-c2ccccn2)nc2c(C)cccn12 | > 26 µM (inactive)
39 | COC(=O)c1ccccc1NC1=C/C(=N\S(=O)(=O)c2ccc(C(=O)O)cc2)c2ccccc2C1=O | > 26 µM (inactive)
40 | COc1ccc(CCNc2ncnc3c2oc2ccccc23)cc1OC | > 26 µM (inactive)
41 | Cc1cc(C2CCCCC2)n(O)c(=O)c1 | > 26 µM (inactive)
42 | CC(=O)c1ccc(NC(=S)NC(C)c2ccc(Cl)cc2Cl)cc1 (configuration not stated) | > 26 µM (inactive)
43 | Cc1ccccc1C(=O)N1CCN(c2ccc(NC(=O)c3cccnc3)cc2)CC1 | > 26 µM (inactive)
44 | C/C(=N\N1C(=O)c2ccccc2NC1c1ccccc1)c1ccccc1O (configuration not stated) | > 26 µM (inactive)
45 | COc1ccc(C(NC(C)=O)c2ccc3cccnc3c2O)c(OC)c1 (configuration not stated) | > 26 µM (inactive)
46 | Cc1nc(NC(=O)C23CC4CC(CC(C4)C2)C3)sc1Cc1ccc2c(c1)OCO2 | > 26 µM (inactive)

Row | SMILES | AC50
47 | C/C(=N\NC(=O)COc1ccccc1-c1ccccc1)c1ccc(O)cc1O | > 26 µM (inactive)
48 | CCc1c(C2(O)CCCCC2)[nH]c2cc(C(F)(F)F)ccc12 | > 26 µM (inactive)
49 | O=C(NNC(=O)c1ccccc1O)c1ccc(Cl)c(S(=O)(=O)N2CCc3ccccc32)c1 | 27.2 µM
50 | CCN(CC)CCNC(=O)c1ccc2c(c1NCCO)C(=O)c1ccccc1C2=O | > 26 µM (inactive)
51 | CCCc1sc(N/N=C/c2ccccn2)nc1-c1ccc(F)cc1 | > 26 µM (inactive)
52 | Cc1cccc(NC2=C/C(=N/S(=O)(=O)c3cccs3)c3ccccc3C2=O)c1 | > 26 µM (inactive)
53 | Cc1[nH]n(-c2ccccc2)c(=O)c1/C=N/NC(=O)c1cccc(F)c1 | > 26 µM (inactive)
54 | COc1ccc(Cn2c(SCc3ccc(C)cc3)nc3cc(OC)c(OC)cc3c2=N)cc1Cl | > 26 µM (inactive)
55 | Cc1ccc(-c2nc(NC(=O)c3nn(C)cc3[N+](=O)[O-])sc2C)cc1 | > 26 µM (inactive)
56 | CCCCS(=O)(=O)/C=C\C=C/S(=O)(=O)CCCC | > 26 µM (inactive)
57 | O=C(Nc1cccc(S(=O)(=O)Nc2ccc(Cl)cc2)c1)c1ccc(Cl)nc1 | > 26 µM (inactive)
58 | Cc1cc(C)cc(NC(=O)/C(C#N)=C/c2cn(CC(=O)NCc3ccco3)c3ccccc23)c1 | > 26 µM (inactive)
59 | CCOc1ccc(S(=O)(=O)N(C)c2ccc(OCC(=O)Nc3nc4ccccc4s3)cc2)cc1 | > 26 µM (inactive)
60 | O=C(N/N=C(\c1ccccc1)c1ccccn1)c1ccccc1Cl | > 26 µM (inactive)
61 | CCCCOCCCNc1ncnc2c1[nH]c1ccccc12 | > 26 µM (inactive)
62 | Cc1ccc(C(C)C)c(OCc2ccc(C(=O)N/N=C/c3cccc(O)c3O)cc2)c1 | > 26 µM (inactive)
63 | COc1ccc(N=C2S/C(=C\c3ccc(N4CCOCC4)o3)C(=O)N2CCc2c[nH]c3ccccc23)cc1 | > 26 µM (inactive)
64 | Cc1ccc(NC2=CC(=O)C(=O)c3ccccc32)c(C)c1 | > 26 µM (inactive)
65 | CC(C)(C)OC(=O)NCCCCCc1cn([C@@H](CO)C(=O)NCCCCCCCCCCC(=O)N2CCN(C(=O)OC(C)(C)C)CC2)nn1 | > 26 µM (inactive)
66 | CC(=O)N(Cc1ccc(F)cc1)C1=C(NCCc2ccccc2)C(=O)c2ccccc2C1=O | > 26 µM (inactive)
67 | COC(=O)[C@H](CC(C)C)N(Cc1ccccc1)S(=O)(=O)N(Cc1ccc(OC)cc1)[C@@H](CC(C)C)C(=O)OC | > 26 µM (inactive)
68 | CCOC(=O)C(C(C)=O)c1c(Br)c(O)c(O)c2c(C(=O)c3ccc(C)cc3)coc12 (configuration not stated) | > 26 µM (inactive)
69 | O=c1[nH]c(NCCCO)nc2c1C1(CCCC1)Cc1ccccc1-2 | > 26 µM (inactive)

Row | SMILES | AC50
70 | C/C(Cn1nnc([N+](=O)[O-])n1)=N\NC(=O)c1ccccc1Cl | > 26 µM (inactive)
71 | Cc1ccccc1/C=C/C(=O)c1ccc([N+](=O)[O-])o1 | > 26 µM (inactive)
72 | O=C(NC1CCCC1)c1cc(COc2ccc3ncccc3c2)on1 | > 26 µM (inactive)
73 | N#C/C(=C\c1ccc([N+](=O)[O-])o1)c1nc2ccccc2[nH]1 | > 26 µM (inactive)
74 | COc1ccc(C2CC(c3ccc4ccccc4c3OC(C)=O)=NN2C(C)=O)cc1 (configuration not stated) | > 26 µM (inactive)
75 | O=C1C=C(Nc2ccc(O)cc2)C(=O)c2ccccc21 | > 26 µM (inactive)
76 | COc1cccc(/C=N/Nc2cc(N3CCOCC3)ncn2)c1O | > 26 µM (inactive)
77 | Cc1ccc2nc(C)c(CN3CCN(c4ccc([N+](=O)[O-])cc4Cl)CC3)n2c1 | > 26 µM (inactive)
78 | CC(C)COCc1ccc(O)c2ncccc12 | > 26 µM (inactive)
79 | CN(C)S(=O)(=O)c1cccc(CSCc2cccc(S(=O)(=O)N(C)C)c2)c1 | > 26 µM (inactive)
80 | Oc1cc(-c2ccc(N3CCCCC3)nc2)cc2cccnc12 | > 26 µM (inactive)
81 | Cc1ccc(-c2nn(-c3ccccc3)cc2/C=N/NC(=O)c2ccc3c(c2)OCO3)cc1 | > 26 µM (inactive)
82 | Cc1cccc(NC(=O)Nc2cccc(Oc3c(F)c(F)c(F)c(F)c3F)c2)c1 | > 26 µM (inactive)
83 | CC1Cc2ccccc2N1C(=O)CSc1nc2ccccc2o1 (configuration not stated) | > 26 µM (inactive)
84 | CCCCCCc1cc2cc(C(=O)Nc3ccccc3)c(=O)oc2cc1O | > 26 µM (inactive)
85 | COc1ccc2nc(C)cc(N/N=C/c3ccc(F)cc3)c2c1 | > 26 µM (inactive)
86 | C#CCOCCOCCOCCNc1nc(N2CCN(C(=O)CCCCCCCCCCNC(=O)[C@@H](CCSC)n3cc(CCO)nn3)CC2)nc(N2CCN(C(=O)CCCCCCCCCCNC(=O)[C@H]([C@@H](C)CC)n3cc(CCCCCN)nn3)CC2)n1 | > 26 µM (inactive)
87 | O=C(Nc1ccc(OCC(F)(F)C(F)F)c(C(F)(F)F)c1)c1ccccc1O | > 26 µM (inactive)
88 | CN1/C(=C\C=C2/SC(=S)NC2=O)C(C)(C)c2ccccc21 | > 26 µM (inactive)
89 | CCOc1ccc(/C=N/Nc2ccc(Cl)nn2)c(O)c1 | > 26 µM (inactive)
90 | Cc1nc(NCCc2ccc(S(N)(=O)=O)cc2)c2c(C)c(C)sc2n1 | > 26 µM (inactive)
91 | CCN(CC)S(=O)(=O)c1cccc(NC(=O)CNc2cccc(S(=O)(=O)N3CCCC3)c2)c1 | > 26 µM (inactive)
92 | COc1cc(CSc2nnnn2-c2ccc(C)cc2)cc(OC)c1OC | > 26 µM (inactive)
